Data as given in patent US20070166710A1, “Methods for inhibiting adipogenesis and for treating type 2 diabetes” (priority 2003, published 2007).

Key:
Foxa-2 [1] = test: Intracellular localization of Foxa-2 in hepatocytes after insulin injection into the portal vein; type: in vivo, mice
Description: Cryosections of livers ([…]) were fixed for 15 min at RT with 4% paraformaldehyde. For immunofluorescent detection of Foxa-2 or HA-Foxa-2, fixed sections were incubated with either anti-Foxa-2 antibody (1:100) or anti-HA antibody (Convance) (1:1000) overnight at 4° C. After washing, sections were treated with secondary antibody linked to Alexa Fluor 488 (Molecular Probes). For nuclear counterstaining, TOPRO-3 dye (Molecular Probes) was used. Immunofluorescent staining was visualized using laser-scanning micrsocopy.
The role of Foxa-2 in the regulation of liver gene expression by nutritional status was examined by determining the intracellular localization of Foxa-2 in fasted and fed mice by Western blotting of Foxa-2 in liver nuclear extracts and by immunohistochemistry. In fed mice, nuclear Foxa-2 levels were low, whereas after an overnight fast Foxa-2 expression in liver nuclei increased ^˜4 to 5-fold (FIG. 15a). […] Strong Foxa-2 immunostaining was detected in hepatocyte nuclei of control (PBS) mice. […] Foxa-2 protein levels were measured in liver nuclei of C57/B6 mice that were perfused with a buffer containing a range of insulin concentrations that included fasting and postprandial insulin levels (0.2 and 4.0 ng/ml, respectively). […] Foxa-2 levels were determined by immunoblotting. […]

Foxa-2 [2] = test: Immunofluorescence of subcellular distribution of endogenous Foxa-2 in HepG2 cells; type: cell-based; conditions: insulin 50 nM
Description: Immunofluorescence microscopy. Cells were fixed for 30 minutes at room temperature with 2% paraformaldehyde. For immunofluorescent detection of Foxa-1 or Foxa-2, fixed cells were incubated with respective polyclonal antibodies (1:100) (Ruiz i Altaba et al. (1993) Mech. Dev. 44: 91-108) overnight at 4° C. After washing, the cells were treated with anti rabbit IgG secondary antibody linked to Alexa Fluor 488 (Molecular Probes). Immunofluorescent staining was visualized using laser-scanning micrsocopy. To determine whether Akt-induced phosporylation of Foxa-2 has an effect on the subcellular distribution of this transcription factor, the following experiment was performed. HepG2 cells were grown to 60% confluency and endogenous Foxa-1 and Foxa-2 proteins were visualized by immunofluorescence after staining with anti Foxa-1 and Foxa-2 antibodies. Cells were either examined in the absence or presence of insulin (50 nM) and/or Ly294002 or PD98059, and after transfection with either Akt1 or Akt2 expression vectors (FIG. 5B). […] Treatment of cells with MAPKK1 inhibitor PD98059 had no effect on insulin stimulated nuclear exclusion of Foxa-2. The subcellular distribution of Foxa-2 in cells that were stimulated with insulin and expressed a dominant negative form of Akt (Akt[…]) were resistant to nuclear exclusion. […]

Foxa-2 expression = Foxa-2 expression in primary adipocytes from lean wildtype C57B6 mice, semiquantitative RT-PCR; type: cell-based; conditions: insulin 100 nM, 60 hours
Description: Total RNA was extracted from cells and EBs using Trizol following manufacturer's instructions (Life Technologies, Inc.). […] The cDNAs provided templates for polymerase chain reactions (PCRs) using specific primers at annealing temperatures ranging between 60 and 65° C. in the presence of dNTPs, [α^-32P]dCTP, and Taq DNA polymerase. […] Primary adipocytes were isolated as described by Rodbell (1964) J. Biol. Chem. 239:375-380. […] (1995) J. Cell. Biochem. 58:435-463. The reaction was stopped by spinning through dinonyl […] oil and the radioactivity quantified by scintillation counting. […] (1995) Am. J. Physiol. 268:[…]-[…]. Fatty acid de novo synthesis was analyzed by saponification of total lipids as described by […] et al. (1978) J. […] Incorporation into lipid glycerol was calculated by subtracting fatty acid radioactive label from total lipid radioactive label. Primary adipocytes were isolated from lean wildtype C57B6 mice and cultured in MEM medium (control) or in the presence of insulin (100 nM; 24 hours and 60 hours, respectively) or rosiglitazone (50 μM), WY14,643 (100 μM), dexametason (1 μM), leptin (100 ng/ml), TNF-α (5 ng/ml), adiponectin (500 ng/ml) and glucagons (100 nM) for 60 hours. Gene expression was measured by semiquantitative RT-PCR. Steady state mRNA levels of Hprt were used as a control and indicate that each lane contains similar amounts of mRNA. Reactions were also assayed in the absence of reverse transcriptase, showing that mRNA was not contaminated with genomic DNA.

insulin: Insulin was from Sigma; hormone used as stimulus
nuclei from which Foxa-2 was excluded (Foxa-2 [1]; 20 ng/ml insulin into the portal vein of fasted mice, after 5 minutes): ~80%
localization of Foxa-2 in hepatocytes (Foxa-2 [1]; 15 minutes after insulin administration): located exclusively in the cytoplasm of all hepatocytes
subcellular localization of endogenous Foxa-2 (Foxa-2 [2]): efficiently excluded from the nucleus
Foxa-2 expression (Foxa-2 expression): strong induction
